In the PolyMetriX glass transition set one finds glass transition temperature data, which are given here for 55 molecules.

In turn, `*C(=O)Oc1ccc(-c2ccc(OC(=O)c3ccc4c(c3)C(=O)N(c3ccc(Oc5ccc(N6C(=O)c7ccc(*)cc7C6=O)cc5)cc3)C4=O)cc2)cc1` (repeat unit) gave a glass transition temperature of 232.00 °C.

`*CCCCCCCN1C(=O)c2ccc(C(=O)Oc3ccc(-c4ccc(OC(=O)c5ccc6c(c5)C(=O)N(*)C6=O)cc4)cc3)cc2C1=O` (repeat unit) displayed a glass transition temperature of 117.00 °C.

In turn, `*CCCCCCN1C(=O)c2ccc(C(=O)Oc3ccc(-c4ccc(OC(=O)c5ccc6c(c5)C(=O)N(*)C6=O)cc4)cc3)cc2C1=O` (repeat unit) gave a glass transition temperature of 133.00 °C.

With `*CCCCCN1C(=O)c2ccc(C(=O)Oc3ccc(-c4ccc(OC(=O)c5ccc6c(c5)C(=O)N(*)C6=O)cc4)cc3)cc2C1=O` (repeat unit), the glass transition temperature was determined as 147.00 °C.

In turn, `*CCCCN1C(=O)c2ccc(C(=O)Oc3ccc(-c4ccc(OC(=O)c5ccc6c(c5)C(=O)N(*)C6=O)cc4)cc3)cc2C1=O` (repeat unit) came in with a glass transition temperature of 126.00 °C.

Consider `*CCCOCCCCOCCCN1C(=O)c2ccc(C(=O)Oc3ccc(-c4ccc(OC(=O)c5ccc6c(c5)C(=O)N(*)C6=O)cc4)cc3)cc2C1=O` (repeat unit), for which the glass transition temperature came out at 70.00 °C.

Molecule `*N/C(C#N)=C(\C#N)NC(=O)c1ccc(C(*)=O)cc1` (repeat unit) displayed a glass transition temperature of 232.00 °C.

`*OP(=O)(Oc1ccc(-c2ccc(*)cc2)cc1)OC1CCCCC1` (repeat unit) had a glass transition temperature of 116.00 °C.

In the case of `*O[Si](C)(C)O[Si](C)(C)O[Si](C)(C)O[Si](C)(C)O[Si](C)(C)O[Si](C)(C)Oc1c(*)c2ccccc2c2ccccc12` (repeat unit), the glass transition temperature was -68.00 °C.

For `*O[Si](C)(C)O[Si](C)(C)O[Si](C)(C)O[Si](C)(C)Oc1c(*)c2ccccc2c2ccccc12` (repeat unit), the glass transition temperature is -35.00 °C.

Regarding `*Oc1c(C)cc(*)cc1C(C)CCCCC` (repeat unit), the glass transition temperature came to 60.00 °C.

In the case of `*Oc1c(C)cc(*)cc1C(C)CCCCCCCC` (repeat unit), the glass transition temperature stood at 20.00 °C.

Consider `*Oc1c(Cl)cc(C(=C(Cl)Cl)c2cc(Cl)c(OC(*)=O)c(Cl)c2)cc1Cl` (repeat unit), for which the glass transition temperature came to 250.00 °C.

`*Oc1c(Cl)cc(C2(c3cc(Cl)c(OC(*)=O)c(Cl)c3)CC3CC2C2CCCC32)cc1Cl` (repeat unit): the glass transition temperature was found to be 281.00 °C.

Take `*Oc1c(OC)cc(*)cc1OC` (repeat unit): the glass transition temperature came out at 174.10 °C.

In the case of `*Oc1cc(C(C)(C)C)c(Oc2ccc(C(=O)Nc3ccc(C(C)(C)c4ccc(NC(=O)c5ccc(*)cc5)cc4)cc3)cc2)cc1C(C)(C)C` (repeat unit), the glass transition temperature was 254.00 °C.

For the molecule `*Oc1cc(C(C)(C)C)c(Oc2ccc(C(=O)c3ccc(*)cc3)cc2)cc1C(C)(C)C` (repeat unit), the glass transition temperature was found to be 206.00 °C.

`*Oc1ccc(-c2cc(-c3ccccc3)c(-c3ccc(OC(=O)c4ccc(C(*)=O)cc4-c4ccccc4)cc3)c(-c3ccccc3)c2-c2ccccc2)cc1` (repeat unit) returned a glass transition temperature of 225.00 °C.

With `*Oc1ccc(-c2ccc(/N=N/c3ccc(C(*)=O)cc3)cc2)cc1` (repeat unit), the glass transition temperature was 147.00 °C.

`*Oc1ccc(-c2ccc(OC(=O)c3ccc(C(*)=O)cc3)cc2)cc1` (repeat unit) had a glass transition temperature of 267.00 °C.

For `*Oc1ccc(-c2ccc(OC(=O)c3ccc(C(*)=O)cc3Sc3ccc4ccccc4c3)cc2)cc1` (repeat unit), the glass transition temperature turned out to be 141.00 °C.

`*Oc1ccc(-c2ccc(OC(=O)c3cccc(C(*)=O)c3)cc2)cc1` (repeat unit): the glass transition temperature was 185.50 °C.

The molecule `*Oc1ccc(/N=N/c2ccc(S(=O)(=O)c3ccc(/N=N/c4ccc(OC(=O)c5ccc(/N=N/c6ccc(C(*)=O)cc6)cc5)cc4)cc3[N+](=O)[O-])c([N+](=O)[O-])c2)cc1` (repeat unit) registered a glass transition temperature of 150.00 °C.

The molecule `*Oc1ccc(C(=O)O)c(C(=O)Nc2ccc(NC(=O)c3cc(*)ccc3C(=O)O)cc2)c1` (repeat unit) displayed a glass transition temperature of 166.30 °C.

Take `*Oc1ccc(C(=O)OCCOCCOC(=O)c2ccc(OC(*)=O)cc2)cc1` (repeat unit): the glass transition temperature came out at 51.00 °C.

`*Oc1ccc(C(c2ccc(OC(*)=O)cc2)(C(F)(F)F)C(F)(F)F)cc1` (repeat unit) yielded a glass transition temperature of 176.00 °C.

As to `*Oc1ccc(C(c2ccc(OC(*)=O)cc2)C(Cl)(Cl)Cl)cc1` (repeat unit), the glass transition temperature is 230.00 °C.

`*Oc1ccc(C(c2ccc(OC(*)=O)cc2)C(Cl)Cl)cc1` (repeat unit): the glass transition temperature was determined as 165.00 °C.

In the case of `*Oc1ccc(C(c2ccc(OC(=O)c3ccc(C(c4ccc(C(*)=O)cc4)(C(F)(F)F)C(F)(F)F)cc3)cc2)(C(F)(F)F)C(F)(F)F)cc1` (repeat unit), the glass transition temperature was found to be 135.00 °C.

With `*Oc1ccc(C(c2ccc(OC(=O)c3ccccc3-c3ccccc3C(*)=O)cc2)(C(F)(F)F)C(F)(F)F)cc1` (repeat unit), the glass transition temperature amounted to 162.00 °C.

In the case of `*Oc1ccc(C(c2ccc(Oc3c(F)c(F)c(COC(c4cccc(C(OCc5c(F)c(F)c(*)c(F)c5F)(C(F)(F)F)C(F)(F)F)c4)(C(F)(F)F)C(F)(F)F)c(F)c3F)cc2)(C(F)(F)F)C(F)(F)F)cc1` (repeat unit), the glass transition temperature came to 113.00 °C.

Turning to `*Oc1ccc(C(c2ccccc2)(c2ccccc2)c2ccc(OC(=O)c3cccc(C(*)=O)c3)cc2)cc1` (repeat unit), the glass transition temperature was 229.00 °C.

Regarding `*Oc1ccc(Oc2c(F)c(F)c(-c3c(F)c(F)c(*)c(F)c3F)c(F)c2F)cc1S(=O)(=O)O` (repeat unit), the glass transition temperature amounted to 120.00 °C.

As to `*Oc1ccc(Oc2ccc(C(=O)c3ccc(*)c(S(=O)(=O)O)c3)cc2S(=O)(=O)O)cc1` (repeat unit), the glass transition temperature stood at 220.00 °C.

`*Oc1ccc(Oc2ccc(C(=O)c3ccc(*)cc3)cc2)cc1-c1cc(C)cc(C)c1` (repeat unit) registered a glass transition temperature of 162.00 °C.

In turn, `*Oc1ccc(Oc2ccc(C(=O)c3ccc(*)cc3)cc2)cc1-c1cccc(C(F)(F)F)c1` (repeat unit) showed a glass transition temperature of 134.00 °C.

In turn, `*Oc1ccc(Oc2ccc(C(=O)c3ccc(*)cc3)cc2)cc1S(=O)(=O)O` (repeat unit) gave a glass transition temperature of 225.00 °C.

Molecule `*Oc1ccc(Oc2ccc(C(=O)c3ccc(-c4ccc(C(=O)c5ccc(*)cc5)cc4)cc3)cc2)cc1-c1cccc(C)c1` (repeat unit) displayed a glass transition temperature of 170.00 °C.

On to `*Oc1ccc(Oc2ccc(C(=O)c3ccc(C(=O)c4ccc(*)cc4)cc3)cc2)cc1-c1cccc(C)c1` (repeat unit), for which the glass transition temperature stood at 159.00 °C.

Molecule `*Oc1ccc(Oc2ccc(C(=O)c3ccc(Oc4ccc(Oc5cccc(*)n5)cc4)cc3)cc2)cc1` (repeat unit) yielded a glass transition temperature of 124.00 °C.

As for `*Oc1ccc(S(=O)(=O)c2ccc(Oc3ccc(C(c4ccc(*)cc4)(C(F)(F)F)C(F)(F)F)cc3)cc2[Si](C)(C)C)c([Si](C)(C)C)c1` (repeat unit), the glass transition temperature was found to be 172.00 °C.

Regarding `*c1ccc(Cc2ccc(N3C(=O)C(Cl)=C(Oc4ccc(C(c5ccc(OC6=C(Cl)C(=O)N(*)C6=O)cc5)(C(F)(F)F)C(F)(F)F)cc4)C3=O)cc2)cc1` (repeat unit), the glass transition temperature is 189.00 °C.

`*c1ccc(OC(=O)c2cc(Cl)cc(C(=O)Oc3ccc(C4(*)OC(=O)c5ccccc54)cc3)c2)cc1` (repeat unit): the glass transition temperature turned out to be 313.00 °C.

For the molecule `*c1ccc(Oc2cc3ccccc3cc2Oc2ccc(N3C(=O)c4ccc(Oc5cc6ccccc6cc5Oc5ccc6c(c5)C(=O)N(*)C6=O)cc4C3=O)cc2)cc1` (repeat unit), the glass transition temperature is 222.00 °C.

As to `*c1ccc(Oc2ccc(-c3ccc(Oc4ccc(N5C(=O)c6ccc(Oc7ccc(-c8ccc(Oc9ccc%10c(c9)C(=O)N(*)C%10=O)cc8)cc7)cc6C5=O)cc4)cc3)cc2)cc1` (repeat unit), the glass transition temperature was found to be 220.00 °C.

The molecule `*c1ccc(Oc2ccc(-c3ccc4nc(Oc5cc(-c6ccccc6)c6cc(*)ccc6n5)cc(-c5ccccc5)c4c3)cc2)cc1` (repeat unit) displayed a glass transition temperature of 268.50 °C.

As for `*c1ccc(Oc2ccc(N3C(=O)c4ccc(Oc5cc6ccccc6cc5Oc5ccc6c(c5)C(=O)N(*)C6=O)cc4C3=O)cc2)cc1` (repeat unit), the glass transition temperature came out at 220.50 °C.

Regarding `*c1ccc(Oc2ccc(N3C(=O)c4cccc(Oc5ccc(-c6ccc(Oc7cccc8c7C(=O)N(*)C8=O)cc6)cc5)c4C3=O)cc2)cc1` (repeat unit), the glass transition temperature stood at 277.00 °C.

Molecule `*c1ccc(Oc2ccc(Oc3ccc(-n4c(=O)c5cc6c(=O)n(*)c(=O)c6cc5c4=O)cc3)cc2C(C)(C)C)cc1` (repeat unit) displayed a glass transition temperature of 314.00 °C.

The molecule `*c1ccc(Oc2ccc(Oc3ccc(-n4c(=O)c5cc6c(=O)n(*)c(=O)c6cc5c4=O)cc3)cc2C)cc1` (repeat unit) gave a glass transition temperature of 310.00 °C.

`*c1ccc(Oc2ccc(Oc3ccc(N4C(=O)c5ccc(Oc6ccc(-c7ccc(Oc8ccc9c(c8)C(=O)N(*)C9=O)cc7)cc6)cc5C4=O)cc3)cc2)cc1` (repeat unit) registered a glass transition temperature of 222.00 °C.

`*c1ccc(Oc2ccc(Sc3ccc(Oc4ccc(N5C(=O)c6ccc(Oc7ccc(-c8ccc(Oc9ccc%10c(c9)C(=O)N(*)C%10=O)cc8)cc7)cc6C5=O)cc4)cc3)cc2)cc1` (repeat unit) registered a glass transition temperature of 206.00 °C.

Consider `*c1ccc(Oc2cccc(Oc3ccc(N4C(=O)c5cccc(Oc6ccc(-c7ccc(Oc8cccc9c8C(=O)N(*)C9=O)cc7)cc6)c5C4=O)cc3)c2)cc1` (repeat unit), for which the glass transition temperature was determined as 224.00 °C.

In the case of `*c1cccc(N2C(=O)c3ccc(Oc4cc5ccccc5cc4Oc4ccc5c(c4)C(=O)N(*)C5=O)cc3C2=O)c1` (repeat unit), the glass transition temperature was 237.00 °C.

`*c1cccc(Oc2ccc(P(=O)(c3ccccc3)c3ccccc3)c(Oc3cccc(N4C(=O)c5ccc(Oc6ccc(-c7ccc(Oc8ccc9c(c8)C(=O)N(*)C9=O)cc7)cc6)cc5C4=O)c3)c2)c1` (repeat unit) returned a glass transition temperature of 227.00 °C.
